Source: paper PMC12454493, “Insight on novel sulfamoylphenyl pyrazole derivatives as anticancer carbonic anhydrase inhibitors” (Molecular Diversity, 2024)
Values joined by “and” are separate entries in the source; they are usually repeats but may differ in a detail not shown here. Equal values may be shown once.

Legend:
SF-295 = assay: NCI-60 one-dose SRB screen (CNS Cancer); format: cell-based; details: Homo sapiens, single dose 10 µM, 48 h, read-out: Growth inhibition percent (GI %)
Procedure: (§1) The National Cancer Institute (NCI) Developmental Therapeutic Program (www.dtp.nci.nih.gov) selected the 20 novel synthesized compounds 4a-e, 5a-e, 6a-c, 9a-e, 10 and 11 to test for their anticancer activity at a single dose of 10 µM using SRB assay. […] Supplementary Data S3; Table S1 presents the detailed screening results of the most promising compounds. The preliminary screening’s detailed results for the remaining compounds are elucidated in the (Supplementary Data S3; Table S2).
(§2) The guidelines of the Drug Evaluation Branch’s protocol at the NCI in Bethesda served as the basis for the in vitro anticancer screening assays. at one dose 10 µM against a panel of 60 cancer cell lines. The human tumor cell lines used belonged to nine panels: leukemia, melanoma, lung, colon, CNS, ovarian, renal, prostate and breast cancers using the sulforhodamine B (SRB) assay in a 48 h drug exposure protocol.

SNB-75 = assay: NCI-60 one-dose SRB screen (CNS Cancer); format: cell-based; details: Homo sapiens, single dose 10 µM, 48 h, read-out: Growth inhibition percent (GI %)
Procedure: as §1, §2

SF-268 = assay: NCI-60 one-dose SRB screen (CNS Cancer); format: cell-based; details: Homo sapiens, single dose 10 µM, 48 h, read-out: Growth inhibition percent (GI %)
Procedure: as §1, §2

U251 = assay: NCI-60 one-dose SRB screen (CNS Cancer); format: cell-based; details: Homo sapiens, U-251, single dose 10 µM, 48 h, read-out: Growth inhibition percent (GI %)
Procedure: as §1, §2

SNB-19 = assay: NCI-60 one-dose SRB screen (CNS Cancer); format: cell-based; details: Homo sapiens, single dose 10 µM, 48 h, read-out: Growth inhibition percent (GI %)
Procedure: as §1, §2

SF-539 = assay: NCI-60 one-dose SRB screen (CNS Cancer); format: cell-based; details: Homo sapiens, single dose 10 µM, 48 h, read-out: Growth inhibition percent (GI %)
Procedure: as §1, §2

OVCAR-4 = assay: NCI-60 one-dose SRB screen (Ovarian cancer); format: cell-based; details: Homo sapiens, single dose 10 µM, 48 h, read-out: Growth inhibition percent (GI %)
Procedure: as §1, §2

SK-OV-3 = assay: NCI-60 one-dose SRB screen (Ovarian cancer); format: cell-based; details: Homo sapiens, single dose 10 µM, 48 h, read-out: Growth inhibition percent (GI %)
Procedure: as §1, §2

OVCAR-5 = assay: NCI-60 one-dose SRB screen (Ovarian cancer); format: cell-based; details: Homo sapiens, single dose 10 µM, 48 h, read-out: Growth inhibition percent (GI %)
Procedure: as §1, §2

OVCAR-8 = assay: NCI-60 one-dose SRB screen (Ovarian cancer); format: cell-based; details: Homo sapiens, single dose 10 µM, 48 h, read-out: Growth inhibition percent (GI %)
Procedure: as §1, §2

OVCAR-3 = assay: NCI-60 one-dose SRB screen (Ovarian cancer); format: cell-based; details: Homo sapiens, single dose 10 µM, 48 h, read-out: Growth inhibition percent (GI %)
Procedure: as §1, §2

IGROV1 = assay: NCI-60 one-dose SRB screen (Ovarian cancer); format: cell-based; details: Homo sapiens, IGROV-1, single dose 10 µM, 48 h, read-out: Growth inhibition percent (GI %)
Procedure: as §1, §2

hCA XII = hCA XII (Homo sapiens, UniProt O43570); assay: CA inhibitory activity, spectrophotometric p-NPA assay; format: biochemical; details: p-NPA substrate, pH 7.5, 25 °C, triplicate; read-out: IC50 (µM) ± SD hCA XII
Procedure: The software used to calculate CA IC50 along with statistical analysis of the results is GraphPad Prism 9.00. Results were estimated by using one-way ANOVA and the Bonferroni’s multiple comparisons posthoc test was performed (P < 0.05) [46]
Carbonic anhydrase inhibitory activity:
The spectrophotometric assay was conducted in HEPES-Tris buffer, NaCl of pH 7.5 (20mM) at 25◦C. Each inhibitory well-consisted of 50 μL of assay buffer solution, 20 μL of hCA enzyme solution (20 ng/μL in Assay Buffer), and 50 μL of test compound in HPLC grade DMSO (maintain 10% of the final concentration). The mixture solution was
Substrate p-nitrophenyl acetate (p-NPA) (0.7mM) was prepared in HPLC grade methanol and the reaction was started by adding 20 μL to a well in a 96-well-plate. The amount of product formed was measured for 30 min continuously at 1 min intervals at 400 nm in a 96-well-plate using xMARK microplate spectrophotometer, Bio-Rad (USA). The activity of the controlled compound was taken as 100%. All experiments were carried out in triplicates of each used concentration, and results are represented as a

MDA-MB-468 = assay: NCI-60 one-dose SRB screen (Breast Cancer); format: cell-based; details: Homo sapiens, single dose 10 µM, 48 h, read-out: Growth inhibition percent (GI %)
Procedure: as §1, §2

MCF-7 = assay: NCI-60 one-dose SRB screen (Breast Cancer); format: cell-based; details: Homo sapiens, MCF7, single dose 10 µM, 48 h, read-out: Growth inhibition percent (GI %)
Procedure: as §1, §2

BT-549 = assay: NCI-60 one-dose SRB screen (Breast Cancer); format: cell-based; details: Homo sapiens, single dose 10 µM, 48 h, read-out: Growth inhibition percent (GI %)
Procedure: as §1, §2

MDA-MB-231/ATCC = assay: NCI-60 one-dose SRB screen (Breast Cancer); format: cell-based; details: Homo sapiens, single dose 10 µM, 48 h, read-out: Growth inhibition percent (GI %)
Procedure: as §1, §2

T-47D = assay: NCI-60 one-dose SRB screen (Breast Cancer); format: cell-based; details: Homo sapiens, T47D, single dose 10 µM, 48 h, read-out: Growth inhibition percent (GI %)
Procedure: as §1, §2

HS 578T = assay: NCI-60 one-dose SRB screen (Breast Cancer); format: cell-based; details: Homo sapiens, single dose 10 µM, 48 h, read-out: Growth inhibition percent (GI %)
Procedure: as §1, §2

NCI-H460 = assay: NCI-60 one-dose SRB screen (Non-Small Cell Lung Cancer); format: cell-based; details: Homo sapiens, single dose 10 µM, 48 h, read-out: Growth inhibition percent (GI %)
Procedure: as §1, §2

NCI-H226 = assay: as above; format: cell-based; details: Homo sapiens, single dose 10 µM, 48 h, read-out: Growth inhibition percent (GI %)
Procedure: as §1, §2

EKVX = assay: as above; format: cell-based; details: Homo sapiens, single dose 10 µM, 48 h, read-out: Growth inhibition percent (GI %)
Procedure: as §1, §2

HOP-62 = assay: as above; format: cell-based; details: Homo sapiens, single dose 10 µM, 48 h, read-out: Growth inhibition percent (GI %)
Procedure: as §1, §2

NCI-H322M = assay: as above; format: cell-based; details: Homo sapiens, single dose 10 µM, 48 h, read-out: Growth inhibition percent (GI %)
Procedure: as §1, §2

NCI-H522 = assay: as above; format: cell-based; details: Homo sapiens, single dose 10 µM, 48 h, read-out: Growth inhibition percent (GI %)
Procedure: as §1, §2

A549/ATCC = assay: as above; format: cell-based; details: Homo sapiens, single dose 10 µM, 48 h, read-out: Growth inhibition percent (GI %)
Procedure: as §1, §2

HOP-92 = assay: as above; format: cell-based; details: Homo sapiens, single dose 10 µM, 48 h, read-out: Growth inhibition percent (GI %)
Procedure: as §1, §2

NCI-H23 = assay: as above; format: cell-based; details: Homo sapiens, single dose 10 µM, 48 h, read-out: Growth inhibition percent (GI %)
Procedure: as §1, §2

HT29 = assay: NCI-60 one-dose SRB screen (Colon Cancer); format: cell-based; details: Homo sapiens, HT-29, single dose 10 µM, 48 h, read-out: Growth inhibition percent (GI %)
Procedure: as §1, §2

Sequence of hCA XII (O43570 25-354): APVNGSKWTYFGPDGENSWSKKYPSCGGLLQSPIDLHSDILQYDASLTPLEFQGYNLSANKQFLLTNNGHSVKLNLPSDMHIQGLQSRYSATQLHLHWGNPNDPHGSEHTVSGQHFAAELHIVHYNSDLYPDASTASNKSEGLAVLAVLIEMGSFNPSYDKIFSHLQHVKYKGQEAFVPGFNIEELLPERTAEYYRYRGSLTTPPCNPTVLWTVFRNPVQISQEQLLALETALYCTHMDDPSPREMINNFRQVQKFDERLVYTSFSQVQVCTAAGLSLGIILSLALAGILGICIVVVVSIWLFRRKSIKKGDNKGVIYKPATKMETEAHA

NS(=O)(=O)c1ccc(NC(=O)COC(=O)c2cn(-c3ccc(S(N)(=O)=O)cc3)nc2-c2ccccc2)cc1 [Compound 4a, 2-Oxo-2-[(4-sulfamoylphenyl)amino] ethyl 3-phenyl-1-(4-sulfamoylphenyl)-1H-pyrazole-4-carboxylate]
31.1%: inhibition at 10 µM (SNB-75)
43.4%: inhibition at 10 µM (BT-549)
< 5%: inhibition at 10 µM (SF-295) | inhibition at 10 µM (SF-268) | inhibition at 10 µM (U251) | inhibition at 10 µM (SNB-19) | inhibition at 10 µM (SF-539) | inhibition at 10 µM (OVCAR-4) | inhibition at 10 µM (SK-OV-3) | inhibition at 10 µM (OVCAR-5) | inhibition at 10 µM (OVCAR-8) | inhibition at 10 µM (OVCAR-3) | inhibition at 10 µM (IGROV1) | inhibition at 10 µM (MDA-MB-468) | inhibition at 10 µM (MCF-7) | inhibition at 10 µM (T-47D) | inhibition at 10 µM (HS 578T) | inhibition at 10 µM (NCI-H460) | inhibition at 10 µM (NCI-H226) | inhibition at 10 µM (EKVX) | inhibition at 10 µM (HOP-62) | inhibition at 10 µM (NCI-H322M) | inhibition at 10 µM (NCI-H522) | inhibition at 10 µM (A549/ATCC) | inhibition at 10 µM (HOP-92) | inhibition at 10 µM (NCI-H23) | inhibition at 10 µM (HT29)
0.22 µM and 0.226 µM: IC50 (hCA XII)
10.5%: inhibition at 10 µM (MDA-MB-231/ATCC)
